PMC8122463, “Coumarin-Chalcone Hybrids as Inhibitors of MAO-B: Biological Activity and In Silico Studies” (Molecules, 2021)
Entries after “also recorded” stand apart in the source; their conditions may differ.

Columns and labels:
[1] = molecular target: T1, rMAO-A (Rattus norvegicus, UniProt P21396); experiment: Inhibition of rMAO-A in crude rat brain mitochondria (5-HT substrate, HPLC-ED); format: biochemical; conditions: substrate 5-HT
T1 construct: using a suspension of crude rat brain mitochondria as enzyme source; from tissue; host or cells: rat brain (crude mitochondrial suspension)
T1 sequence (P21396 1-526): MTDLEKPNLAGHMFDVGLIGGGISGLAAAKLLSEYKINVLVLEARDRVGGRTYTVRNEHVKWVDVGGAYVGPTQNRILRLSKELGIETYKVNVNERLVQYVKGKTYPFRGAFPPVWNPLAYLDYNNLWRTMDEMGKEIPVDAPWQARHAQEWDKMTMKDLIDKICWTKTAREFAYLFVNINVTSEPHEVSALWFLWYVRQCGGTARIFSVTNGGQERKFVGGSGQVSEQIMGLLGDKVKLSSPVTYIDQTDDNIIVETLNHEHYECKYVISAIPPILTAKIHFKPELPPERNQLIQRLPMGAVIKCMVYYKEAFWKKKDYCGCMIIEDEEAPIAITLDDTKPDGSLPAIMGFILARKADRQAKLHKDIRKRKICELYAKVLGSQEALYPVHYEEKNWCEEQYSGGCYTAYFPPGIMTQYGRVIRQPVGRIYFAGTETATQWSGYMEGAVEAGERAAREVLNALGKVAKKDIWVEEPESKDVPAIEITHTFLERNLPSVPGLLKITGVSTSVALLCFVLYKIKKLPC
Experimental: (§1) Fourteen derivatives differing in the substitution pattern of the cinnamyl benzene ring were studied, these compounds were tested on rat MAO-A and B to determine their inhibitory activity MAO. A general screening was carried out at 10 µM finding moderate activity for some of the compounds against rMAO-B but none against rMAO-A. Thus, five molecules were identified as possibly selective IMAO-B.
(§2) The effect of coumarin derivatives on MAO-A and MAO-B were measured using a suspension of crude rat brain mitochondria as enzyme source. 4-Dimethylaminophenethylamine (4-DMAPEA, 2.5 µM) and 5-hydroxytryptamine (5-HT, […]) were used as substrates selective of MAO-B or MAO-A, respectively. Evaluation of the test compounds on rMAO activity was executed by measuring their effects on the production of 4-dimethylaminophenylacetic acid (DMAPAA) by rMAO-B and 5-hydroxyindoleacetic acid (5-HIAA) by rMAO-A with O2 using HPLC-ED (L-7110 LaChrom and amperometric detector L-3500 LaChrom Recipe, Hitachi, (Tokyo, Japan) (for more detail see methodological references). The IC50 values (average ± SD was measured in two independent experiments each in triplicate) were assessed representing percentage of inhibition in function of the negative logarithm of different inhibitor concentrations (10^−4 to 10^−8) using the GraphPad Prism software.

[2] = molecular target: T2, rMAO-B (Rattus norvegicus, UniProt P19643); experiment: Inhibition of rMAO-B in crude rat brain mitochondria (4-DMAPEA substrate, HPLC-ED); format: biochemical; conditions: for IC50: crude rat brain mitochondria, substrate 4-DMAPEA 2.5 µM
T2 construct: using a suspension of crude rat brain mitochondria as enzyme source; from tissue; host or cells: rat brain (crude mitochondrial suspension)
T2 sequence (P19643 1-520): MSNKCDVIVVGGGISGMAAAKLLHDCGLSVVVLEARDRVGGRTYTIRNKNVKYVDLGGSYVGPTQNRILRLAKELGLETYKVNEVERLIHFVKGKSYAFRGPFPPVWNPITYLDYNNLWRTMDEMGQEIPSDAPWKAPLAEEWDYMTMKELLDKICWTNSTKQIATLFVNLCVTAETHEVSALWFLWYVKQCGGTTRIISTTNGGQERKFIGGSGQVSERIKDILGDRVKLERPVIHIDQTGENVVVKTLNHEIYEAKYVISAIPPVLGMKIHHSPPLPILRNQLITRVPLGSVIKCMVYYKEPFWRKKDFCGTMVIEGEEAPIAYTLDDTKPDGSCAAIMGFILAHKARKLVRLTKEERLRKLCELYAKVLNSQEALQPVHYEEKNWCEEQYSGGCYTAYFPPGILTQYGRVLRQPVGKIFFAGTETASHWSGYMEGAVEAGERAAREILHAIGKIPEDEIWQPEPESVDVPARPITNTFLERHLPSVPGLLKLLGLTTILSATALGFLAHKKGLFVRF
Experimental: as §1, §2

SMILES	IC50 [1] [µM]	IC50 [2] [µM]	rMAO-B inhibitory activity in vitro (in words) [2]	Fold lower IMAO activity than ChC4 ([2]; rMAO-B, relative to ChC4)
COc1ccc2cc(C(=O)C=Cc3ccccc3)c(=O)oc2c1 [ChC1, 3-Cinnamoyl-7-methoxy-2H-chromen-2-one]	> 10	> 10		
COc1ccc2cc(C(=O)/C=C/c3ccccc3O)c(=O)oc2c1 [ChC2, (E)-3-(3-(2-Hydroxyphenyl)acryloyl)-7-methoxy-2H-chromen-2-one]	> 10	> 10	loss of the inhibitory activity; also recorded: does not show in vitro activity	
COc1ccc2cc(C(=O)/C=C/c3ccccc3OC)c(=O)oc2c1 [ChC3, (E)-7-methoxy-3-(3-(2-methoxyphenyl)acryloyl)-2H-chromen-2-one]	> 10	> 10		
COc1ccc2cc(C(=O)/C=C/c3cccc(O)c3)c(=O)oc2c1 [ChC4, (E)-3-(3-(3-hydroxyphenyl)acryloyl)-7-methoxy-2H-chromen-2-one]	> 10	0.76 ± 0.08		
COc1cccc(/C=C/C(=O)c2cc3ccc(OC)cc3oc2=O)c1 [ChC5, (E)-7-methoxy-3-(3-(3-methoxyphenyl)acryloyl)-2H-chromen-2-one]	> 10	9.63 ± 0.9		approximately 12 fold
COc1ccc(/C=C/C(=O)c2cc3ccc(OC)cc3oc2=O)cc1 [ChC6, (E)-7-methoxy-3-(3-(4-methoxyphenyl)acryloyl)-2H-chromen-2-one]	> 10	6.96 ± 0.07		
COc1ccc(OC)c(/C=C/C(=O)c2cc3ccc(OC)cc3oc2=O)c1 [ChC8, (E)-3-(3-(2,5-dimethoxyphenyl)acryloyl)-7-methoxy-2H-chromen-2-one]	> 10	> 10		
COc1ccc2cc(C(=O)/C=C/c3ccc4c(c3)OCO4)c(=O)oc2c1 [ChC9, (E)-3-(3-(benzo[d][1,3]dioxol-5-yl)acryloyl)-7-methoxy-2H-chromen-2-one]	> 10	3.71 ± 0.68		
COc1ccc2cc(C(=O)/C=C/c3ccc(O)c(OC)c3)c(=O)oc2c1 [ChC10]	> 10	> 10	loss of the inhibitory activity	
COc1ccc2cc(C(=O)/C=C/c3ccc(SC)cc3)c(=O)oc2c1 [ChC11]	> 10	5.88 ± 0.57		
COc1ccc2cc(C(=O)/C=C/c3cc(Br)c(OC)c(Br)c3)c(=O)oc2c1 [ChC12, (E)-3-(3-(3,5-dibromo-4-methoxyphenyl)acryloyl)-7-methoxy-2H-chromen-2-one]	> 10	> 10		
COc1ccc2cc(C(=O)/C=C/c3ccc(N(C)C)cc3)c(=O)oc2c1 [ChC13, (E)-3-(3-(4-(dimethylamino)phenyl)acryloyl)-7-methoxy-2H-chromen-2-one]	> 10	> 10		
COc1ccc2cc(C(=O)/C=C/c3ccc(Br)cc3)c(=O)oc2c1 [ChC14, (E)-3-(3-(4-bromophenyl)acryloyl)-7-methoxy-2H-chromen-2-one]	> 10	> 10		
